Test results reported in a melting point compilation (Tetko et al.; mined from patent text by program, amines drawn as free bases though some values may be those of a salt).

melting point [°C]	SMILES
136 to 138	NS(=O)(=O)c1cc2cc(CCOCc3ccccc3)ccc2s1
244 to 245	O=[N+]([O-])c1cccc(-c2ccc3[nH]c(=S)n(Cc4ccccc4)c3c2)c1
226 to 228	CC1NC(=O)NN=C1c1ccc(Cl)c(N)c1 (stereo not drawn)
59 to 62	CC(C)(O)CCOc1c(-c2ccc(S(N)(=O)=O)cc2)cnn(-c2ccc(F)c(Cl)c2)c1=O
202 to 203	COCC1(C)CCOc2ccc(C#Cc3ccc(C(=O)O)cc3)cc21 (stereo not drawn)
237	CC(=O)Nc1cnc2cccc(Oc3cc(-c4ccc(C(F)(F)F)cc4)ncn3)c2n1
208	c1ccc(-c2nnc3c4ccccc4c(N4CCCC4)nn23)cc1
155 to 156	CCN1CC=C(CC(=O)NC2(c3ccc(C(F)(F)F)cc3)C(=O)Nc3cc(Cl)cc(Cl)c32)CC1 (single isomer, unassigned; (+))
150 to 152	CCn1nc(C(F)(F)F)c(C)c1O
> 300	COC(=O)c1ccc2nc(C)n(Cc3ccc(C=C4SC(=O)NC4=O)cc3Cl)c2n1
186 to 187	N#CC(=NNc1c(Cl)cc(C(F)(F)F)cc1Cl)c1ccc(C#N)cc1
110 to 112	COc1ccc([C@H](Sc2ccccc2N)[C@@H](O)C(N)=O)cc1
169 to 171	COc1ccc(C)cc1NC(=O)Nc1ccc(N2CCN(C(=O)OC(C)(C)C)CC2)cc1C
127 to 129	CCN(CC)C(=O)c1ccc(C)c(-c2nc(SC)nc3c2CNC(=O)N3c2c(F)cccc2F)c1
103 to 105	Cc1sc(N)c(C(=O)c2cccc(C(F)(F)F)c2)c1C
114 to 115	Cc1ccccc1C(=O)Nc1cccc(OCc2ccccc2)c1
120 to 122	COc1ccc(-c2cc3c(C#N)c(OC)ccc3o2)cc1
139	CC(C)(C)OC(=O)Nc1cc(OC(C)(C)C)c(-c2ccc(F)cc2)cc1N
198	COc1ccccc1CNc1ccc2cc(Nc3nnc(C(F)(F)F)o3)ccc2n1

melting point [°C]	SMILES
189 to 191	O=C(CCCCc1ccccc1)Nc1ccc(C(=O)NO)cc1
118 to 120	FC(F)(F)c1cccc(C2=NOC(CNC(=S)N3CCOCC3)C2)c1 (stereo not drawn)
118 to 119	Cc1cn(-c2cc([N+](=O)[O-])cc(C(F)(F)F)c2)cn1
126 to 127	CCOC(=O)c1c(O)c2ccccc2c2nc3ccccc3nc12
193 to 196	Cc1cc(SCc2cccc3nc(-c4ccc(C(F)(F)F)cc4)sc23)ccc1OCC(=O)O
186	O=C(c1ccncc1)c1cccc(NC(=O)c2ccn3c2CSC3c2cccnc2)c1 (stereo not drawn)
137 to 138	Cc1cc(OCc2ccccc2)cc2nc(OC(C)C)oc(=O)c12
134	Cc1ccc(C(=O)c2cc(-c3cccnc3)c(N3CCOCC3)s2)cc1
155 to 156	CC(C)(C)c1ccc(S(=O)(=O)N(Cc2cc(C(C)(C)C)c(O)c(C(C)(C)C)c2)c2cccnc2)cc1
161 to 163	O=C1C(=O)N(CC(F)(F)F)c2ccccc21
140 to 142	CS(=O)(=O)c1ccc(-c2cc(Cl)ccc2OCC(=O)O)cc1Cl
154 to 156	CCOC(=O)C1=C(C)NC(=O)N(CCCN(C)Cc2ccccc2)C1c1cccc(Cl)c1Cl (stereo not drawn)
264 to 266	CNC(=O)c1ccc(N2CCN(Cc3cnc4c(c3)[nH]c(=O)n3cccc43)CC2)c(C)c1
230	CN(C)C(=O)Nc1cccc(-c2nc(=O)c3ccccc3s2)n1
272 to 274	O=C(O)c1ccc(NC(=O)C(c2ccc(Cl)cc2)c2ccc(Cl)cc2)cc1
235 to 237	Cc1ncc(-c2cccc(Nc3ncnc4c3CCOc3ccccc3-4)c2)n1C
> 210	Nc1nccc(-c2c[nH]c3nccc(-c4ccccc4)c23)n1
120 to 123	COc1cc(C=C[N+](=O)[O-])ccc1OCc1cccc2ccccc12

More lines, now with the values behind:

SMILES	melting point [°C]
COC1CCN(S(=O)(=O)c2ccc(S(N)(=O)=O)cc2)CC1	153 to 154
C=CCC(NC(C)=O)C(=O)NCc1ccccc1 (stereo not drawn)	118 to 120
CCC(=CC(CNC(=O)c1c(C)noc1C)=NO)C(C)[N+](=O)[O-] (stereo not drawn)	100 to 103
CN(C)c1cccc(OC(=O)NC2C(=O)N(CCC(C)(C)C)c3ccccc3N(c3ccccc3F)C2=O)c1 (stereo not drawn)	160 to 161
Cc1cc2c(cc1N1CCCCC1)OC(=O)C2C (stereo not drawn)	61 to 63
CNc1nc(C)c(-c2nc3ccccc3c(=O)n2-c2cccc(C)c2)s1	> 275
C=CCOC(=O)C=CC(=O)NC(N)=O	108 to 110
CC(C(N)=O)c1ccc(NS(=O)(=O)C(C)C)cc1 (stereo not drawn)	125 to 127
CS(=O)(=O)N[C@@H]1CCCC[C@H]1Nc1nc(Nc2cc(F)cc3c2OCCNC3=O)ncc1Cl	177 to 181
CC1=NN(c2ccc3c(=O)n(CC(C)C)c(CN)c(-c4ccccc4)c3c2)CO1	179 to 181
CN1C(C)(C)CC(OC(=O)N=NC(=O)OC2CC(C)(C)N(C)C(C)(C)C2)CC1(C)C	135 to 137
COC(=O)CCn1cc(Cc2cccnc2)c2c(CCC(=O)OC(C)(C)C)cccc21	80 to 82
Cn1ccnc1COc1cc(Oc2ccc(S(C)(=O)=O)cc2)cc2cc(C3=NCC(CC(N)=O)S3)[nH]c12 (stereo not drawn)	130 to 131
CC(C)C[C@H](NC(=O)CCCc1ccccc1)C(=O)N[C@@H](Cc1ccccc1)C(=O)CSCc1ccco1	106 to 108
COC(=O)c1scc(Br)c1N	58 to 60
CCCCCCCCCCCCc1nnn(C(C(=O)O)c2ccccc2)n1 (stereo not drawn)	76 to 78

SMILES	melting point [°C]
CC(C)(C)OC(=O)[C@H]1C[C@H](C(=O)O)[C@@H](c2ccccc2)N1C(=O)CNC(=O)Nc1ccc(Cl)cc1 (racemic)	248
Cc1nnc(CN(C)C)n1-c1ccc(Br)cc1C(=O)c1ccccn1	127 to 128
CCCCOc1c(CNC(=O)OC(C)(C)C)n(CC2CC2)c(=O)c2ccc(O)cc12	164 to 166
CCCCOc1cccc(OCCBr)c1	32 to 34
O=C(O)c1cccc(-n2nnnc2S)c1	181 to 182
CSCc1cnc2c([N+](=O)[O-])cccc2c1Cl	96 to 98
CCOP(=O)(/C=C/c1cn(CCO)nc1OCc1ccc(OCc2nc(-c3ccco3)oc2C)c(OC)c1)OCC	95 to 96
O=c1[nH]nc2ccc(OCCCN3CCC(OC(c4ccccc4)c4ccccc4)CC3)nn12	209 to 211
CC(C)(C)OC(=O)NCCNC(=O)c1cnc(S)n1Cc1cc(F)cc(F)c1	178 to 179
CCOc1cc(Cc2cnc(N)nc2N)cc2c1OC(C)(C)C=C2C(C)(O)CC (stereo not drawn)	127 to 128
O=C(O)c1cn(C2CC2)c2cc(N3CCC(c4ccccn4)C3)c(F)cc2c1=O (stereo not drawn)	216 to 219
CCCCCCCC(=O)CCCCCC(=O)N[C@@H](C)C(=O)N[C@H](CCC(=O)OCc1ccccc1)C(N)=O	137 to 141
O=C(Nc1cccc(CO)c1)NC1N=C(c2ccccc2F)c2ccccc2N(CC(=O)N2CC3CCC(CC3)C2)C1=O (racemic)	143 to 161
Cc1ccc(C)n1CCNC(N)=O	139 to 141
CCCCCCC1CCC(C(=O)Nc2c(C(C)C)cccc2C(C)C)C(=O)O1 (stereo not drawn)	113 to 115
